Experimental data: the NIST ThermoML archive (doi:10.1021/je600568w)

Tests used:
[1] = xn = mol fraction of the nth substance listed; settings: 101 kPa, Liquid; for viscosity: Capillary tube (Ostwald / Ubbelohde) method
[2] = 101 kPa, Liquid; for viscosity: Capillary tube (Ostwald / Ubbelohde) method

C=C(C)C(=O)OCc1ccccc1 [benzyl methacrylate] + CCOC(=O)C(C)O
[1]
Settings	mass density, 298.15 K [kg/m3]	mass density, 308.15 K [kg/m3]	mass density, 318.15 K [kg/m3]	viscosity, 298.15 K [mPa·s]	viscosity, 308.15 K [mPa·s]	viscosity, 318.15 K [mPa·s]
x2 = 0	1034.7	1025.8	1017	2.302	1.885	1.58
x2 = 0.1	1033.7	1024.3	1015.1	2.219	1.832	1.53
x2 = 0.1999	1032.7	1023.3	1013.9	2.166	1.8	1.493
x2 = 0.3	1032.1	1022.6	1012.9	2.153	1.77	1.458
x2 = 0.4	1031.6	1021.9	1012.1	2.149	1.753	1.437
x2 = 0.5	1031.1	1021.2	1011.2	2.161	1.749	1.426
x2 = 0.6	1030.7	1020.6	1010.4	2.179	1.753	1.426
x2 = 0.7	1030.2	1020	1009.5	2.209	1.761	1.431
x2 = 0.7999	1029.8	1019.4	1008.7	2.25	1.782	1.447
x2 = 0.9	1029.4	1018.9	1008	2.303	1.807	1.464

CCOC(=O)C(C)O (stereo not drawn) [DL-ethyl lactate] + C=C(C)C(=O)OCCO
[1], x1 = 1
Settings	mass density [kg/m3]	viscosity [mPa·s]
298.15 K	1029.1	2.398
308.15 K	1018.7	1.863
318.15 K	1007.5	1.494

C=C(C)C(=O)OCCO [2-hydroxyethyl 2-methyl-2-propenoate] + CCOC(=O)C(C)O
[1]
Settings	mass density, 298.15 K [kg/m3]	mass density, 308.15 K [kg/m3]	mass density, 318.15 K [kg/m3]	viscosity, 298.15 K [mPa·s]	viscosity, 308.15 K [mPa·s]	viscosity, 318.15 K [mPa·s]
x2 = 0	1067.1	1057.7	1048.6	5.784	4.194	3.181
x2 = 0.1	1063.9	1054.7	1045.6	5.23	3.833	2.938
x2 = 0.2	1060.6	1051.4	1042.2	4.75	3.513	2.71
x2 = 0.3	1057.1	1047.9	1038.5	4.36	3.215	2.493
x2 = 0.4	1053.5	1044.3	1034.6	3.989	2.975	2.311
x2 = 0.5	1049.8	1040.4	1030.6	3.663	2.742	2.141
x2 = 0.6	1045.9	1036.4	1026.4	3.343	2.526	1.985
x2 = 0.7	1041.8	1032.2	1022	3.041	2.323	1.834
x2 = 0.8	1037.7	1027.9	1017.5	2.767	2.127	1.689
x2 = 0.9	1033.4	1023.4	1012.8	2.524	1.949	1.556

C=C(C)C(=O)O [2-methyl-2-propenoic acid] + CCOC(=O)C(C)O
[1]
Settings	mass density, 298.15 K [kg/m3]	mass density, 308.15 K [kg/m3]	mass density, 318.15 K [kg/m3]	viscosity, 298.15 K [mPa·s]	viscosity, 308.15 K [mPa·s]	viscosity, 318.15 K [mPa·s]
x2 = 0	1009.5	999.4	989.2	1.267	1.078	0.945
x2 = 0.1	1012.1	1002	991.7	1.422	1.19	1.02
x2 = 0.2	1014.6	1004.6	994.5	1.66	1.368	1.154
x2 = 0.3	1017	1007.4	997.3	1.933	1.567	1.306
x2 = 0.3999	1019.8	1010.2	999.9	2.181	1.742	1.43
x2 = 0.5	1022.5	1012.7	1002.2	2.378	1.87	1.52
x2 = 0.6	1024.7	1014.8	1004.2	2.465	1.929	1.551
x2 = 0.6999	1026.5	1016.5	1005.8	2.532	1.967	1.579
x2 = 0.8	1027.9	1017.8	1007.2	2.539	1.962	1.567
x2 = 0.9001	1028.7	1018.6	1008.2	2.471	1.907	1.526

CCOC(=O)C(C)O (stereo not drawn) [DL-ethyl lactate] + C=C(C)C(=O)O
[1], x1 = 1
Settings	mass density [kg/m3]	viscosity [mPa·s]
298.15 K	1029.1	2.398
308.15 K	1018.7	1.863
318.15 K	1007.5	1.494

C=C(C)C(=O)OCCO [2-hydroxyethyl 2-methyl-2-propenoate]
[2]
Settings	mass density [kg/m3]	viscosity [mPa·s]
298.15 K	1067.1	5.784
308.15 K	1057.7	4.194
318.15 K	1048.6	3.181

CCOC(=O)C(C)O (racemic) [DL-ethyl lactate]
[2]
Settings	mass density [kg/m3]	viscosity [mPa·s]
298.15 K	1029.1	2.398
308.15 K	1018.7	1.863
318.15 K	1007.5	1.494

C=C(C)C(=O)O [2-methyl-2-propenoic acid]
[2]
Settings	mass density [kg/m3]	viscosity [mPa·s]
298.15 K	1009.5	1.267
308.15 K	999.4	1.078
318.15 K	989.2	0.945

C=C(C)C(=O)OCc1ccccc1 [benzyl methacrylate]
[2]
Settings	mass density [kg/m3]	viscosity [mPa·s]
298.15 K	1034.7	2.302
308.15 K	1025.8	1.885
318.15 K	1017	1.58

CCOC(=O)C(C)O (stereo not drawn) [DL-ethyl lactate] + C=C(C)C(=O)OCc1ccccc1
[1], x1 = 1
Settings	mass density [kg/m3]	viscosity [mPa·s]
298.15 K	1029.1	2.398
308.15 K	1018.7	1.863
318.15 K	1007.5	1.494
